Numbers after ± are expanded uncertainties.
Assay: xn = mol fraction of the nth substance listed
Conditions: 101 kPa, Liquid; for speed of sound: Frequency=2 MHz, Sing-around technique in a fixed-path interferometer; for viscosity: Oscillating disk viscometry; for mass density: Vibrating tube method

In the case of `NC1CCCCC1` [cyclohexylamine] + CN1CCCC1=O, the speed of sound (303.15 K, x2 = 0) is reported as 1397.8 ± 0.9 m/s, the speed of sound (303.15 K, x2 = 0.1171) is reported as 1424.2 ± 0.9 m/s and the speed of sound (303.15 K, x2 = 0.2299) is reported as 1448.4 ± 0.9 m/s. The speed of sound (303.15 K, x2 = 0.3385) was 1469.1 ± 0.9 m/s, the speed of sound (303.15 K, x2 = 0.4432) was 1487.8 ± 0.9 m/s and the speed of sound (303.15 K, x2 = 0.5442) was 1504.3 ± 0.9 m/s. For the same compound, the speed of sound (303.15 K, x2 = 0.6417) was 1518.1 ± 0.9 m/s, the speed of sound (303.15 K, x2 = 0.7358) was 1530.2 ± 1 m/s and the speed of sound (303.15 K, x2 = 0.8268) was 1540.3 ± 1 m/s. For the same compound, the speed of sound (303.15 K, x2 = 0.9149) was 1548.2 ± 1 m/s, the viscosity (303.15 K, x2 = 0) was 1.797 ± 0.36 mPa·s and the viscosity (303.15 K, x2 = 0.1171) was 1.791 ± 0.36 mPa·s. It also gave a viscosity (303.15 K, x2 = 0.2299) of 1.789 ± 0.36 mPa·s, a viscosity (303.15 K, x2 = 0.3385) of 1.784 ± 0.36 mPa·s and a viscosity (303.15 K, x2 = 0.4432) of 1.773 ± 0.35 mPa·s. For the same compound, the viscosity (303.15 K, x2 = 0.5442) was 1.754 ± 0.35 mPa·s, the viscosity (303.15 K, x2 = 0.6417) was 1.727 ± 0.34 mPa·s and the viscosity (303.15 K, x2 = 0.7358) was 1.693 ± 0.34 mPa·s. For the same compound, the viscosity (303.15 K, x2 = 0.8268) was 1.648 ± 0.33 mPa·s, the viscosity (303.15 K, x2 = 0.9149) was 1.592 ± 0.32 mPa·s and the mass density (303.15 K, x2 = 0) was 857.71 ± 0.14 kg/m3. For the same compound, the mass density (303.15 K, x2 = 0.1171) was 877.49 ± 0.13 kg/m3, the mass density (303.15 K, x2 = 0.2299) was 896.91 ± 0.13 kg/m3 and the mass density (303.15 K, x2 = 0.3385) was 915.83 ± 0.14 kg/m3. It also gave a mass density (303.15 K, x2 = 0.4432) of 933.86 ± 0.14 kg/m3, a mass density (303.15 K, x2 = 0.5442) of 950.84 ± 0.14 kg/m3 and a mass density (303.15 K, x2 = 0.6417) of 966.69 ± 0.13 kg/m3. It also gave a mass density (303.15 K, x2 = 0.7358) of 981.66 ± 0.12 kg/m3, a mass density (303.15 K, x2 = 0.8268) of 995.81 ± 0.11 kg/m3 and a mass density (303.15 K, x2 = 0.9149) of 1009.73 ± 0.11 kg/m3. For the same compound, the speed of sound (308.15 K, x2 = 0) was 1379.2 ± 0.9 m/s, the speed of sound (308.15 K, x2 = 0.1171) was 1406.8 ± 0.9 m/s and the speed of sound (308.15 K, x2 = 0.2299) was 1429.4 ± 0.9 m/s. The speed of sound (308.15 K, x2 = 0.3385) was 1449.1 ± 0.9 m/s, the speed of sound (308.15 K, x2 = 0.4432) was 1467.1 ± 0.9 m/s and the speed of sound (308.15 K, x2 = 0.5442) was 1483.1 ± 0.9 m/s. It also gave a speed of sound (308.15 K, x2 = 0.6417) of 1496.5 ± 0.9 m/s, a speed of sound (308.15 K, x2 = 0.7358) of 1507.7 ± 0.9 m/s and a speed of sound (308.15 K, x2 = 0.8268) of 1517.2 ± 0.9 m/s. The speed of sound (308.15 K, x2 = 0.9149) was 1524.6 ± 0.9 m/s, the viscosity (308.15 K, x2 = 0) was 1.704 ± 0.34 mPa·s and the viscosity (308.15 K, x2 = 0.1171) was 1.69 ± 0.34 mPa·s. For the same compound, the viscosity (308.15 K, x2 = 0.2299) was 1.678 ± 0.34 mPa·s, the viscosity (308.15 K, x2 = 0.3385) was 1.668 ± 0.33 mPa·s and the viscosity (308.15 K, x2 = 0.4432) was 1.655 ± 0.33 mPa·s. It also gave a viscosity (308.15 K, x2 = 0.5442) of 1.636 ± 0.33 mPa·s, a viscosity (308.15 K, x2 = 0.6417) of 1.607 ± 0.32 mPa·s and a viscosity (308.15 K, x2 = 0.7358) of 1.569 ± 0.31 mPa·s. The viscosity (308.15 K, x2 = 0.8268) was 1.522 ± 0.3 mPa·s, the viscosity (308.15 K, x2 = 0.9149) was 1.47 ± 0.29 mPa·s and the mass density (308.15 K, x2 = 0) was 853.14 ± 0.14 kg/m3. The mass density (308.15 K, x2 = 0.1171) was 873.25 ± 0.13 kg/m3, the mass density (308.15 K, x2 = 0.2299) was 892.71 ± 0.13 kg/m3 and the mass density (308.15 K, x2 = 0.3385) was 911.69 ± 0.14 kg/m3. The mass density (308.15 K, x2 = 0.4432) was 929.76 ± 0.14 kg/m3, the mass density (308.15 K, x2 = 0.5442) was 946.83 ± 0.14 kg/m3 and the mass density (308.15 K, x2 = 0.6417) was 962.86 ± 0.13 kg/m3. For the same compound, the mass density (308.15 K, x2 = 0.7358) was 977.92 ± 0.12 kg/m3, the mass density (308.15 K, x2 = 0.8268) was 992.5 ± 0.1 kg/m3 and the mass density (308.15 K, x2 = 0.9149) was 1006.41 ± 0.11 kg/m3. The speed of sound (313.15 K, x2 = 0) was 1360.6 ± 0.9 m/s, the speed of sound (313.15 K, x2 = 0.1171) was 1389.2 ± 0.9 m/s and the speed of sound (313.15 K, x2 = 0.2299) was 1411.4 ± 0.9 m/s. The speed of sound (313.15 K, x2 = 0.3385) was 1430.5 ± 0.9 m/s, the speed of sound (313.15 K, x2 = 0.4432) was 1447.6 ± 0.9 m/s and the speed of sound (313.15 K, x2 = 0.5442) was 1462.5 ± 0.9 m/s. The speed of sound (313.15 K, x2 = 0.6417) was 1475.1 ± 0.9 m/s, the speed of sound (313.15 K, x2 = 0.7358) was 1485.7 ± 0.9 m/s and the speed of sound (313.15 K, x2 = 0.8268) was 1494.6 ± 0.9 m/s. The speed of sound (313.15 K, x2 = 0.9149) was 1500.8 ± 0.9 m/s, the viscosity (313.15 K, x2 = 0) was 1.617 ± 0.32 mPa·s and the viscosity (313.15 K, x2 = 0.1171) was 1.6 ± 0.32 mPa·s. The viscosity (313.15 K, x2 = 0.2299) was 1.588 ± 0.32 mPa·s, the viscosity (313.15 K, x2 = 0.3385) was 1.575 ± 0.32 mPa·s and the viscosity (313.15 K, x2 = 0.4432) was 1.56 ± 0.31 mPa·s. The viscosity (313.15 K, x2 = 0.5442) was 1.541 ± 0.31 mPa·s, the viscosity (313.15 K, x2 = 0.6417) was 1.514 ± 0.3 mPa·s and the viscosity (313.15 K, x2 = 0.7358) was 1.477 ± 0.3 mPa·s. For the same compound, the viscosity (313.15 K, x2 = 0.8268) was 1.432 ± 0.29 mPa·s, the viscosity (313.15 K, x2 = 0.9149) was 1.38 ± 0.28 mPa·s and the mass density (313.15 K, x2 = 0) was 848.61 ± 0.14 kg/m3. The mass density (313.15 K, x2 = 0.1171) was 869.06 ± 0.13 kg/m3, the mass density (313.15 K, x2 = 0.2299) was 888.52 ± 0.13 kg/m3 and the mass density (313.15 K, x2 = 0.3385) was 907.42 ± 0.14 kg/m3. For the same compound, the mass density (313.15 K, x2 = 0.4432) was 925.48 ± 0.14 kg/m3, the mass density (313.15 K, x2 = 0.5442) was 942.64 ± 0.14 kg/m3 and the mass density (313.15 K, x2 = 0.6417) was 958.87 ± 0.13 kg/m3. The mass density (313.15 K, x2 = 0.7358) was 974.13 ± 0.12 kg/m3, the mass density (313.15 K, x2 = 0.8268) was 988.74 ± 0.11 kg/m3 and the mass density (313.15 K, x2 = 0.9149) was 1002.53 ± 0.11 kg/m3. For the same compound, the speed of sound (318.15 K, x2 = 0) was 1342 ± 0.9 m/s, the speed of sound (318.15 K, x2 = 0.1171) was 1371.7 ± 0.9 m/s and the speed of sound (318.15 K, x2 = 0.2299) was 1393.8 ± 0.9 m/s. The speed of sound (318.15 K, x2 = 0.3385) was 1412.2 ± 0.9 m/s, the speed of sound (318.15 K, x2 = 0.4432) was 1428.7 ± 0.9 m/s and the speed of sound (318.15 K, x2 = 0.5442) was 1443.2 ± 0.9 m/s. The speed of sound (318.15 K, x2 = 0.6417) was 1455.4 ± 0.9 m/s, the speed of sound (318.15 K, x2 = 0.7358) was 1465.4 ± 0.9 m/s and the speed of sound (318.15 K, x2 = 0.8268) was 1473.6 ± 0.9 m/s. The speed of sound (318.15 K, x2 = 0.9149) was 1477.8 ± 0.9 m/s, the viscosity (318.15 K, x2 = 0) was 1.506 ± 0.3 mPa·s and the viscosity (318.15 K, x2 = 0.1171) was 1.484 ± 0.3 mPa·s. It also gave a viscosity (318.15 K, x2 = 0.2299) of 1.463 ± 0.29 mPa·s, a viscosity (318.15 K, x2 = 0.3385) of 1.442 ± 0.29 mPa·s and a viscosity (318.15 K, x2 = 0.4432) of 1.422 ± 0.28 mPa·s. The viscosity (318.15 K, x2 = 0.5442) was 1.401 ± 0.28 mPa·s, the viscosity (318.15 K, x2 = 0.6417) was 1.375 ± 0.28 mPa·s and the viscosity (318.15 K, x2 = 0.7358) was 1.341 ± 0.27 mPa·s. It also gave a viscosity (318.15 K, x2 = 0.8268) of 1.298 ± 0.26 mPa·s, a viscosity (318.15 K, x2 = 0.9149) of 1.251 ± 0.25 mPa·s and a mass density (318.15 K, x2 = 0) of 844.07 ± 0.14 kg/m3. For the same compound, the mass density (318.15 K, x2 = 0.1171) was 864.89 ± 0.14 kg/m3, the mass density (318.15 K, x2 = 0.2299) was 884.43 ± 0.14 kg/m3 and the mass density (318.15 K, x2 = 0.3385) was 903.34 ± 0.14 kg/m3. The mass density (318.15 K, x2 = 0.4432) was 921.45 ± 0.14 kg/m3, the mass density (318.15 K, x2 = 0.5442) was 938.47 ± 0.14 kg/m3 and the mass density (318.15 K, x2 = 0.6417) was 954.68 ± 0.13 kg/m3. For the same compound, the mass density (318.15 K, x2 = 0.7358) was 970.14 ± 0.12 kg/m3, the mass density (318.15 K, x2 = 0.8268) was 984.78 ± 0.11 kg/m3 and the mass density (318.15 K, x2 = 0.9149) was 998.55 ± 0.11 kg/m3.
